From ChEMBL document CHEMBL1909046, “DrugMatrix in vitro pharmacology data”

Target: Sodium-dependent noradrenaline transporter (Homo sapiens, UniProt P23975)
Experiment: DRUGMATRIX: Norepinephrine Transporter radioligand binding (ligand: [125I] RTI-55)
Assay type: cell membranes, MDCK, Membrane
Conditions: Not Active = under 50% inhibition at 10 µM; read-out: IC50

Chain of Sodium-dependent noradrenaline transporter (P23975 whole entry): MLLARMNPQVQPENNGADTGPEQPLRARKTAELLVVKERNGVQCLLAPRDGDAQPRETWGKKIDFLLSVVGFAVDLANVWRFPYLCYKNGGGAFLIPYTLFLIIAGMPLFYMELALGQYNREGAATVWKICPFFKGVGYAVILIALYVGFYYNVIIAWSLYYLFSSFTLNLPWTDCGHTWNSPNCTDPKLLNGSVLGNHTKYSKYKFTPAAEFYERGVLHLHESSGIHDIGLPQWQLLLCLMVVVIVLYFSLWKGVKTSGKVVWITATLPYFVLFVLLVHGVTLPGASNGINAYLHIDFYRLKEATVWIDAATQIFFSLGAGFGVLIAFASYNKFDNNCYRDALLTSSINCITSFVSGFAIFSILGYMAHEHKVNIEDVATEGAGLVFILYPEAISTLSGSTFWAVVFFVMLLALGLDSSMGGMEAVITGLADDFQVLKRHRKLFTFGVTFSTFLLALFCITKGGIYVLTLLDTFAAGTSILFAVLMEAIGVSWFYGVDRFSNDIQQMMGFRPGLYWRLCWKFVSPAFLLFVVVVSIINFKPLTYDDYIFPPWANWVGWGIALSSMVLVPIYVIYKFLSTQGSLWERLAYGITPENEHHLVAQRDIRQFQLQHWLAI

**Q.** For `CC(=O)Nc1ccc2c(c1)Cc1ccccc1-2` [2-ACETYLAMINOFLUORENE], which IC50 is on record?
**A.** 8.59 µM

Same assay, conditions: Not Active = under 50% inhibition at 10 µM; read-out: Ki

**Q.** Which Ki does the source give for `CC(=O)Nc1ccc2c(c1)Cc1ccccc1-2` [2-ACETYLAMINOFLUORENE] here?
**A.** 8.52 µM

Same assay, conditions: mdck; Not Active = under 50% inhibition at 10 µM

**Q.** For `O=c1[nH]c2ccccc2c2ccccc12`, which IC50 is on record?
**A.** Not Active

**Q.** Which IC50 does the source give for `C=C(Cl)Cl` [1,1-DICHLOROETHENE] here?
**A.** Not Active

**Q.** For `CC(=O)[C@]1(O)Cc2c(O)c3c(c(O)c2[C@@H](O[C@H]2C[C@H](N)[C@H](O)[C@H](C)O2)C1)C(=O)c1ccccc1C3=O` [IDARUBICIN], which IC50 is on record?
**A.** Not Active

**Q.** Which IC50 does the source give for `Oc1ccccc1` [PHENOL] here?
**A.** Not Active

**Q.** With `O=C(Nc1ccc(Cl)c(Cl)c1)c1cc(Cl)cc(Cl)c1O` [3,3',4',5-TETRACHLOROSALICYLANILIDE] as the compound, how does the IC50 read?
**A.** Not Active

**Q.** For `C[N+](C)(C)CCOC(N)=O.[Cl-]` [CARBACHOL], which IC50 is on record?
**A.** Not Active

**Q.** Which IC50 does the source give for `Oc1ncnc2[nH]ncc12` [ALLOPURINOL] here?
**A.** Not Active

Target: Vasopressin V1a receptor (Homo sapiens, UniProt P37288); further: in other assays of this panel Not Active means under 50% inhibition at 10 µM
Sequence (P37288 whole entry): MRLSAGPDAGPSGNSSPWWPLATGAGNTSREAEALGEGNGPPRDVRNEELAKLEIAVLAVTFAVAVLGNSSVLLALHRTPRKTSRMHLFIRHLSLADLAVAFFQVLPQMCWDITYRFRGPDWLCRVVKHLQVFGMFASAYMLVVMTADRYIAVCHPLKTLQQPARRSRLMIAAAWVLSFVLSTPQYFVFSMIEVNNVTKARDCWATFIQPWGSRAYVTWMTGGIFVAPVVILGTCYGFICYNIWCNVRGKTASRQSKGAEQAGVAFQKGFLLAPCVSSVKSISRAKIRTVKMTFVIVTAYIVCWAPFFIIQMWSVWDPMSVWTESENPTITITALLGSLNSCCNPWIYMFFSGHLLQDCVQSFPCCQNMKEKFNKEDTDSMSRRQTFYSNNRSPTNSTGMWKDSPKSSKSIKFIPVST
Assay type: cell membranes, Membrane
Conditions: hek293

**Q.** With `O=c1[nH]c2ccccc2c2ccccc12` as the compound, how does the IC50 read?
**A.** Not Active

**Q.** Which IC50 does the source give for `C=C(Cl)Cl` [1,1-DICHLOROETHENE] here?
**A.** Not Active

**Q.** Which IC50 does the source give for `CC(=O)[C@]1(O)Cc2c(O)c3c(c(O)c2[C@@H](O[C@H]2C[C@H](N)[C@H](O)[C@H](C)O2)C1)C(=O)c1ccccc1C3=O` [IDARUBICIN] here?
**A.** Not Active

**Q.** With `Oc1ccccc1` [PHENOL] as the compound, how does the IC50 read?
**A.** Not Active

**Q.** For `O=C(Nc1ccc(Cl)c(Cl)c1)c1cc(Cl)cc(Cl)c1O` [3,3',4',5-TETRACHLOROSALICYLANILIDE], which IC50 is on record?
**A.** Not Active

**Q.** Which IC50 does the source give for `CC(=O)Nc1ccc2c(c1)Cc1ccccc1-2` [2-ACETYLAMINOFLUORENE] here?
**A.** Not Active

**Q.** Which IC50 does the source give for `C[N+](C)(C)CCOC(N)=O.[Cl-]` [CARBACHOL] here?
**A.** Not Active

**Q.** With `Oc1ncnc2[nH]ncc12` [ALLOPURINOL] as the compound, how does the IC50 read?
**A.** Not Active

System: not listed separately
Experiment: DRUGMATRIX: Imidazoline I2, Central radioligand binding (ligand: [3H] Idazoxan)
Assay type: cell membranes, Rattus norvegicus, Wistar, Cerebral cortex, Membrane
Conditions: Not Active = under 50% inhibition at 10 µM

**Q.** What does the source list for `O=c1[nH]c2ccccc2c2ccccc12`?
**A.** IC50: Not Active; Ki: Not Active

**Q.** Which IC50 does the source give for `C=C(Cl)Cl` [1,1-DICHLOROETHENE] here?
**A.** Not Active

**Q.** What about the Ki of the same compound?
**A.** Not Active

**Q.** For `CC(=O)[C@]1(O)Cc2c(O)c3c(c(O)c2[C@@H](O[C@H]2C[C@H](N)[C@H](O)[C@H](C)O2)C1)C(=O)c1ccccc1C3=O` [IDARUBICIN], which IC50 is on record?
**A.** Not Active

**Q.** What about the Ki of the same compound?
**A.** Not Active

**Q.** With `Oc1ccccc1` [PHENOL] as the compound, how does the IC50 read?
**A.** Not Active

**Q.** And the Ki?
**A.** Not Active

**Q.** For `O=C(Nc1ccc(Cl)c(Cl)c1)c1cc(Cl)cc(Cl)c1O` [3,3',4',5-TETRACHLOROSALICYLANILIDE], which IC50 is on record?
**A.** Not Active

**Q.** What about the Ki of the same compound?
**A.** Not Active

**Q.** What does the source list for `CC(=O)Nc1ccc2c(c1)Cc1ccccc1-2` [2-ACETYLAMINOFLUORENE]?
**A.** IC50: Not Active; Ki: Not Active

**Q.** For `C[N+](C)(C)CCOC(N)=O.[Cl-]` [CARBACHOL], which IC50 is on record?
**A.** Not Active

**Q.** And the Ki?
**A.** Not Active

**Q.** With `Oc1ncnc2[nH]ncc12` [ALLOPURINOL] as the compound, how does the IC50 read?
**A.** Not Active

**Q.** And the Ki?
**A.** Not Active

System: not listed separately
Experiment: DRUGMATRIX: Phorbol Ester radioligand binding (ligand: [3H] PDBu)
Assay type: cell membranes, Mus musculus, ICR, Brain, Membrane
Conditions: Not Active = under 50% inhibition at 10 µM

**Q.** For `O=c1[nH]c2ccccc2c2ccccc12`, which IC50 is on record?
**A.** Not Active

**Q.** What about the Ki of the same compound?
**A.** Not Active

**Q.** Which IC50 does the source give for `C=C(Cl)Cl` [1,1-DICHLOROETHENE] here?
**A.** Not Active

**Q.** What about the Ki of the same compound?
**A.** Not Active

**Q.** Which results are given for `CC(=O)[C@]1(O)Cc2c(O)c3c(c(O)c2[C@@H](O[C@H]2C[C@H](N)[C@H](O)[C@H](C)O2)C1)C(=O)c1ccccc1C3=O` [IDARUBICIN]?
**A.** IC50: Not Active; Ki: Not Active

**Q.** With `Oc1ccccc1` [PHENOL] as the compound, how does the IC50 read?
**A.** Not Active

**Q.** What about the Ki of the same compound?
**A.** Not Active

**Q.** For `O=C(Nc1ccc(Cl)c(Cl)c1)c1cc(Cl)cc(Cl)c1O` [3,3',4',5-TETRACHLOROSALICYLANILIDE], which IC50 is on record?
**A.** Not Active

**Q.** And the Ki?
**A.** Not Active

**Q.** Which results are given for `CC(=O)Nc1ccc2c(c1)Cc1ccccc1-2` [2-ACETYLAMINOFLUORENE]?
**A.** IC50: Not Active; Ki: Not Active

**Q.** What does the source list for `C[N+](C)(C)CCOC(N)=O.[Cl-]` [CARBACHOL]?
**A.** IC50: Not Active; Ki: Not Active

**Q.** Which results are given for `Oc1ncnc2[nH]ncc12` [ALLOPURINOL]?
**A.** IC50: Not Active; Ki: Not Active

Target: T1, Adenosine receptor A3 (Homo sapiens, UniProt P0DMS8);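 further: radioligand binding assay with AB-MECA serving as the labeled ligand; in other assays of this panel Not Active means under 50% inhibition at 10 µM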
T1 sequence (P0DMS8 whole entry): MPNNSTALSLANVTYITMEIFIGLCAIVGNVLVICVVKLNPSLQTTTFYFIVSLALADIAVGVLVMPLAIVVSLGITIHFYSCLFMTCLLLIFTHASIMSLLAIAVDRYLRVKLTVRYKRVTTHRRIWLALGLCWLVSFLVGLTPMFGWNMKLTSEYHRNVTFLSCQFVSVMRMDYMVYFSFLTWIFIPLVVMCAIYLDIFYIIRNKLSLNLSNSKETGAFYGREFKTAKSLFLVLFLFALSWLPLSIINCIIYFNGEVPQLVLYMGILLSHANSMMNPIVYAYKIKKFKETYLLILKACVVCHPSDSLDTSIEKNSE
Assay type: cell membranes, CHO-K1, Membrane
Conditions: cho-k1

**Q.** For `O=c1[nH]c2ccccc2c2ccccc12`, which IC50 is on record?
**A.** Not Active

**Q.** Which IC50 does the source give for `C=C(Cl)Cl` [1,1-DICHLOROETHENE] here?
**A.** Not Active

**Q.** With `CC(=O)[C@]1(O)Cc2c(O)c3c(c(O)c2[C@@H](O[C@H]2C[C@H](N)[C@H](O)[C@H](C)O2)C1)C(=O)c1ccccc1C3=O` [IDARUBICIN] as the compound, how does the IC50 read?
**A.** Not Active

**Q.** For `Oc1ccccc1` [PHENOL], which IC50 is on record?
**A.** Not Active

**Q.** For `O=C(Nc1ccc(Cl)c(Cl)c1)c1cc(Cl)cc(Cl)c1O` [3,3',4',5-TETRACHLOROSALICYLANILIDE], which IC50 is on record?
**A.** Not Active

**Q.** For `CC(=O)Nc1ccc2c(c1)Cc1ccccc1-2` [2-ACETYLAMINOFLUORENE], which IC50 is on record?
**A.** Not Active

**Q.** For `C[N+](C)(C)CCOC(N)=O.[Cl-]` [CARBACHOL], which IC50 is on record?
**A.** Not Active

**Q.** For `Oc1ncnc2[nH]ncc12` [ALLOPURINOL], which IC50 is on record?
**A.** Not Active

Target: Cytochrome P450 3A4 (Homo sapiens, UniProt P08684); further: in other assays of this panel Not Active means under 50% inhibition at 10 µM
Sequence (P08684 whole entry): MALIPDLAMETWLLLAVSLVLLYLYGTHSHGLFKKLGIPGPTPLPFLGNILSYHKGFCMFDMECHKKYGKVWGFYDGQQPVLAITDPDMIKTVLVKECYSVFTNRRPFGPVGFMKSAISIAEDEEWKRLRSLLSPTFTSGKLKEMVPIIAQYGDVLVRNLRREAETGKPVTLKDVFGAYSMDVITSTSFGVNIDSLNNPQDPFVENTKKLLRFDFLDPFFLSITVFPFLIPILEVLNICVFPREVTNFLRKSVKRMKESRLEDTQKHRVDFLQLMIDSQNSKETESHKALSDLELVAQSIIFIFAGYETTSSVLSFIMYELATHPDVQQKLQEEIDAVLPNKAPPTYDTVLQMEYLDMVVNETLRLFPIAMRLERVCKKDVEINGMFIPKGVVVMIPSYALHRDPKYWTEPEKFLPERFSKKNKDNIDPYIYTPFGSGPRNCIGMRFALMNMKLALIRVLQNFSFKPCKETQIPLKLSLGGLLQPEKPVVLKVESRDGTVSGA
Conditions: bti-tn-5b1-4

**Q.** Which IC50 does the source give for `O=c1[nH]c2ccccc2c2ccccc12` here?
**A.** Not Active

**Q.** And the Ki?
**A.** Not Active

**Q.** Which results are given for `C=C(Cl)Cl` [1,1-DICHLOROETHENE]?
**A.** IC50: Not Active; Ki: Not Active

**Q.** For `CC(=O)[C@]1(O)Cc2c(O)c3c(c(O)c2[C@@H](O[C@H]2C[C@H](N)[C@H](O)[C@H](C)O2)C1)C(=O)c1ccccc1C3=O` [IDARUBICIN], which IC50 is on record?
**A.** Not Active

**Q.** What about the Ki of the same compound?
**A.** Not Active

**Q.** With `Oc1ccccc1` [PHENOL] as the compound, how does the IC50 read?
**A.** Not Active

**Q.** And the Ki?
**A.** Not Active

**Q.** For `O=C(Nc1ccc(Cl)c(Cl)c1)c1cc(Cl)cc(Cl)c1O` [3,3',4',5-TETRACHLOROSALICYLANILIDE], which IC50 is on record?
**A.** Not Active

**Q.** And the Ki?
**A.** Not Active

**Q.** For `CC(=O)Nc1ccc2c(c1)Cc1ccccc1-2` [2-ACETYLAMINOFLUORENE], which IC50 is on record?
**A.** Not Active

**Q.** And the Ki?
**A.** Not Active

**Q.** For `C[N+](C)(C)CCOC(N)=O.[Cl-]` [CARBACHOL], which IC50 is on record?
**A.** Not Active

**Q.** What about the Ki of the same compound?
**A.** Not Active

**Q.** With `Oc1ncnc2[nH]ncc12` [ALLOPURINOL] as the compound, how does the IC50 read?
**A.** Not Active

**Q.** What about the Ki of the same compound?
**A.** Not Active

Target: Voltage-gated inwardly rectifying potassium channel KCNH2 (Homo sapiens, UniProt Q12809); further: in other assays of this panel Not Active means under 50% inhibition at 10 µM
Sequence (Q12809 whole entry): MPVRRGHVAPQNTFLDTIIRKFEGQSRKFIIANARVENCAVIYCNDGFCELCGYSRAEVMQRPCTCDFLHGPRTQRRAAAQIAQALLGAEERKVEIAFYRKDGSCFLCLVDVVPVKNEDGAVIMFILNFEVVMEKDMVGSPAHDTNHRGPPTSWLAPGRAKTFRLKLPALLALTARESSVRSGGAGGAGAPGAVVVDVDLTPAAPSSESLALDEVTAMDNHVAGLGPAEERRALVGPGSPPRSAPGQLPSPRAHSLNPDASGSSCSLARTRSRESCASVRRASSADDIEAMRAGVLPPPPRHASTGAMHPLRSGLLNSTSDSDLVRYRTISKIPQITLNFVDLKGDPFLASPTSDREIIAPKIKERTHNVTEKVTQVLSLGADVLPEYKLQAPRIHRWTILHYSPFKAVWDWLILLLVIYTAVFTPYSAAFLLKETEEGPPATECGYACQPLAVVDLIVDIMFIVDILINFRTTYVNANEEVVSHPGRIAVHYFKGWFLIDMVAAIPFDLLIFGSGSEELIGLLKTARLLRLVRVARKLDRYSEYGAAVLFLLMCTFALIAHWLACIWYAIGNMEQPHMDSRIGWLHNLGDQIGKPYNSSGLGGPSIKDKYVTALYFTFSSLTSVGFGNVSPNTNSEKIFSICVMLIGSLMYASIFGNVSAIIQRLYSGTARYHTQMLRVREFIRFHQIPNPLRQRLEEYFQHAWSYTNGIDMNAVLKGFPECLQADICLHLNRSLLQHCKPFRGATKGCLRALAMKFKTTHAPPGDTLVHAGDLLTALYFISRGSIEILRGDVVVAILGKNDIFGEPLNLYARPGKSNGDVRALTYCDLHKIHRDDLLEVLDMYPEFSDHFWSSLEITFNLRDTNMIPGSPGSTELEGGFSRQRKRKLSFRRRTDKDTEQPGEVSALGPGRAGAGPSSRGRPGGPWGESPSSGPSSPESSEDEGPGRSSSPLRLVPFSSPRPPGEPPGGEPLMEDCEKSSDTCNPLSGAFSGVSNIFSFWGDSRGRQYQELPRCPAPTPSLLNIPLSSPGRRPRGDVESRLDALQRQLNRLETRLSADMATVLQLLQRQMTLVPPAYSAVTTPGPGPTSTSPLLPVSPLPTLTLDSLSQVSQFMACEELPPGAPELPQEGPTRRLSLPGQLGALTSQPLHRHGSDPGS
Conditions: hek293

**Q.** With `O=c1[nH]c2ccccc2c2ccccc12` as the compound, how does the IC50 read?
**A.** Not Active

**Q.** What about the Ki of the same compound?
**A.** Not Active

**Q.** For `C=C(Cl)Cl` [1,1-DICHLOROETHENE], which IC50 is on record?
**A.** Not Active

**Q.** And the Ki?
**A.** Not Active

**Q.** With `CC(=O)[C@]1(O)Cc2c(O)c3c(c(O)c2[C@@H](O[C@H]2C[C@H](N)[C@H](O)[C@H](C)O2)C1)C(=O)c1ccccc1C3=O` [IDARUBICIN] as the compound, how does the IC50 read?
**A.** Not Active

**Q.** What about the Ki of the same compound?
**A.** Not Active

**Q.** What does the source list for `Oc1ccccc1` [PHENOL]?
**A.** IC50: Not Active; Ki: Not Active

**Q.** For `O=C(Nc1ccc(Cl)c(Cl)c1)c1cc(Cl)cc(Cl)c1O` [3,3',4',5-TETRACHLOROSALICYLANILIDE], which IC50 is on record?
**A.** Not Active

**Q.** And the Ki?
**A.** Not Active

**Q.** Which IC50 does the source give for `CC(=O)Nc1ccc2c(c1)Cc1ccccc1-2` [2-ACETYLAMINOFLUORENE] here?
**A.** Not Active

**Q.** And the Ki?
**A.** Not Active

**Q.** Which results are given for `C[N+](C)(C)CCOC(N)=O.[Cl-]` [CARBACHOL]?
**A.** IC50: Not Active; Ki: Not Active

**Q.** What does the source list for `Oc1ncnc2[nH]ncc12` [ALLOPURINOL]?
**A.** IC50: Not Active; Ki: Not Active
